# Experimental data reported in patent US9555061B2, “Synthesis and analysis of compounds capable of inducing differentiation of human mesenchymal stems cells into hepatocytes” (National University Corporation Torrori University, priority 2011, dated 2017).
# Legend:
# [1] = test system: Wnt/β-catenin signaling pathway; assay: Luciferase assay in sorted bone marrow-derived mesenchymal stem cells; assay type: cell-based, human; settings: 40 or 45 μM; 8 days after the treatment
# Procedure: Human bone marrow mononuclear cells that had been purchased from Lonza Inc. were suspended in 1 ml of Hanks' balanced salt solution (HBSS, Gibco, Life Technologies Corp.) supplemented with a 100-fold diluted APC-labeled anti-CD90 antibody, a 407-fold diluted PE-labeled anti-CD271 antibody, and 2% fetal bovine serum (FBS, Defined, Thermo Fisher Scientific Inc.), and were stained on ice for 30 min. A flow cytometer (MoFlo XDP, Beckman Coulter Inc.) was used to selectively separate mesenchymal stem cells. The resulting cells were cultured in Dulbecco's Modified Eagle's Medium (Low Glucose, Gibco, Life Technologies Corp.) containing 20% FBS, 100 U/ml penicillin, […] streptomycin (Nacalai Tesque), and 20 ng/ml basic fibroblast growth factor (TRANS GENIC INC., Ltd.) on a 35-mm dish under conditions at 37° C. and 5% CO2. The medium was changed every 4 days. After colonies were formed, the cells were detached using a 0.025% trypsin/1 mM EDTA solution (Nacalai Tesque), split on a 100-mm dish, and cultured under conditions at 37° C. and 5% CO2. Then, the cells which were kept 70 to 80% confluent were detached using trypsin treatment. These cells in one dish were divided into four dishes for passage.
# Cells were seeded on a 96-well plate at a cell density of 5.0×10^3 cells/cm^2. […]
# [2] = test system: UE7T-13 cells; assay: RT-PCR of genes encoding liver-specific secretory proteins and cytokines (UE7T-13); assay type: cell-based, human; settings: hexachlorophene 0.8 μM or IC-2 15 μM; days 8, 16, 24
# Procedure: Bone marrow-derived mesenchymal stem cells (UE7T-13 cells) were treated with a compound, hexachlorophene (H4625-25G; Sigma-Aldrich, Inc.) or IC-2. At that time, gene expression of each of liver-specific secretory proteins and cytokines was evaluated. […] This time point was set to day 0.
# At the next day corresponding to day 1, the medium was changed to DMEM containing hexachlorophene at a final concentration of 0.8 μM or IC-2 at a final concentration of 15 μM. […] After that, the medium was replaced twice during 8 days, and the cells were subcultured every 8 days. Then, the similar operation was carried out until day 24. At days 8, 16, and 24 after the initiation of the induction, TRIzol (Invitrogen) was used to extract total RNA according to the attached instruction. After the extraction, deoxyribonuclease (Nippon Gene) was added, and the mixture was incubated at 37° C. for 30 min to remove DNA. In a reverse transcription reaction, SuperScriptII Reverse Transcriptase (Invitrogen) and Oligo(dT)15 primer were added to 1 μg of RNA to convert it into cDNA. In a RT-PCR method, the cDNA was diluted by 5 times. Next, 1 μl of the cDNA was used as a template. Then, rTaq DNA polymerase (TOYOBO) was used to amplify the cDNA. MQ water was used as a negative control. cDNA from Huh-7 or UE7T-13 cells was used as a positive control. […]
substance,measurement,setting,value
"(6S,9aS)-6-phenyl-8-naphthalen-1-ylmethyl-4,7-dioxo-hexahydro-pyrazino[1,2-a]pyrimidine-1-carbocylic acid benzylamide [IC-2]",inhibition of the Wnt/β-catenin signaling pathway (luciferase activity),[1],significantly inhibited
same,expression of a plurality of the liver-specific secretory proteins and cytokines,[2],increased levels of expression
